Source: PubChem BioAssay (NCI)
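Five concentrations, 48 hours, 96-well plates. GI50 marks 50% less growth. TGI: total growth inhibition.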

Key:
Experiment in all cases: NCI anticancer screen, dose series, 48 h
[1] = test system: 786-0 renal
[2] = test system: A498 renal
[3] = test system: A549 NSCLC
[4] = test system: ACHN renal
[5] = test system: BT-549 breast
[6] = test system: CAKI-1 renal
[7] = test system: CCRF-CEM leukemia
[8] = test system: DU-145 prostate
[9] = test system: EKVX NSCLC
[10] = test system: HCC-2998 colon
[11] = test system: HCT-116 colon
[12] = test system: HCT-15 colon
[13] = test system: HL-60(TB) leukemia
[14] = test system: HOP-62 NSCLC
[15] = test system: HOP-92 NSCLC
[16] = test system: HS 578T breast
[17] = test system: HT29 colon
[18] = test system: IGROV1 ovarian
[19] = test system: K-562 leukemia
[20] = test system: KM12 colon
[21] = test system: LOX IMVI melanoma
[22] = test system: M14 melanoma
[23] = test system: MALME-3M melanoma
[24] = test system: MCF7 breast
[25] = test system: MDA-MB-231 breast
[26] = test system: MDA-MB-435
[27] = test system: MOLT-4 leukemia
[28] = test system: NCI-H226 lung
[29] = test system: NCI-H23 lung
[30] = test system: NCI-H460 lung
[31] = test system: NCI-H522 lung
[32] = test system: NCI/ADR-RES ovarian
[33] = test system: OVCAR-4 ovarian
[34] = test system: OVCAR-5 ovarian
[35] = test system: OVCAR-8 ovarian
[36] = test system: PC-3 prostate
[37] = test system: RPMI-8226 leukemia
[38] = test system: RXF 393 renal
[39] = test system: SF-268 CNS
[40] = test system: SF-295 CNS
[41] = test system: SF-539 CNS
[42] = test system: SK-MEL-2 melanoma
[43] = test system: SK-MEL-28 melanoma
[44] = test system: SK-OV-3 ovarian
[45] = test system: SN12C renal
[46] = test system: SNB-19 CNS
[47] = test system: SR leukemia
[48] = test system: SW-620 colon
[49] = test system: T-47D breast
[50] = test system: TK-10 renal
[51] = test system: U251 CNS
[52] = test system: UACC-257 melanoma
[53] = test system: UACC-62 melanoma
[54] = test system: UO-31 renal

What does the source list for `CC(C)(C)c1cc(NC(=O)Nc2ccc(-c3cn4c5c(sc4n3)CCc3cn(CCCN4CCCCC4)cc3-5)cc2)no1`?
GI50 [1]: 1.76 µM; TGI [1]: 3.21 µM; GI50 [2]: 1.76 µM; TGI [2]: 3.15 µM; GI50 [3]: 1.83 µM; TGI [3]: 3.47 µM; GI50 [4]: 1.79 µM; TGI [4]: 3.21 µM; GI50 [5]: 1.75 µM; TGI [5]: 3.29 µM; GI50 [6]: 1.64 µM; TGI [6]: 3.12 µM; GI50 [7]: 2.01 µM; TGI [7]: 6.44 µM; GI50 [8]: 1.77 µM; TGI [8]: 3.17 µM; GI50 [9]: 1.79 µM; TGI [9]: 3.23 µM; GI50 [10]: 1.91 µM; TGI [10]: 3.77 µM; GI50 [11]: 1.67 µM; TGI [11]: 3.22 µM; GI50 [12]: 1.66 µM; TGI [12]: 3.3 µM; GI50 [13]: 1.88 µM; TGI [13]: 6.27 µM; GI50 [14]: 1.9 µM; TGI [14]: 3.75 µM; GI50 [15]: 1.42 µM; TGI [15]: 2.82 µM; GI50 [16]: 1.82 µM; TGI [16]: 3.85 µM; GI50 [17]: 1.99 µM; TGI [17]: 3.91 µM; GI50 [18]: 1.96 µM; TGI [18]: 3.82 µM; GI50 [19]: 2.57 µM; TGI [19]: > 100 µM; GI50 [20]: 1.9 µM; TGI [20]: 3.83 µM; GI50 [21]: 1.8 µM; TGI [21]: 3.3 µM; GI50 [22]: 1.71 µM; TGI [22]: 3.15 µM; GI50 [23]: 1.71 µM; TGI [23]: 3.38 µM; GI50 [24]: 1.75 µM; TGI [24]: 3.81 µM; GI50 [25]: 1.95 µM; TGI [25]: 3.73 µM; GI50 [26]: 1.73 µM; TGI [26]: 3.17 µM; GI50 [27]: 1.93 µM; TGI [27]: 6.83 µM; GI50 [28]: > 100 µM; TGI [28]: > 100 µM; GI50 [29]: 1.82 µM; TGI [29]: 3.52 µM; GI50 [30]: 1.8 µM; TGI [30]: 3.64 µM; GI50 [31]: 1.89 µM; TGI [31]: 3.74 µM; GI50 [32]: 2.09 µM; TGI [32]: 4.73 µM; GI50 [33]: 1.78 µM; TGI [33]: 3.59 µM; GI50 [34]: 1.75 µM; TGI [34]: 3.18 µM; GI50 [35]: 2.27 µM; TGI [35]: 5.26 µM; GI50 [36]: 1.71 µM; TGI [36]: 3.23 µM; GI50 [37]: 2.36 µM; TGI [37]: 6.28 µM; GI50 [38]: 1.6 µM; TGI [38]: 3.1 µM; GI50 [39]: 1.81 µM; TGI [39]: 3.89 µM; GI50 [40]: 1.73 µM; TGI [40]: 3.25 µM; GI50 [41]: 1.74 µM; TGI [41]: 3.18 µM; GI50 [42]: > 100 µM; TGI [42]: > 100 µM; GI50 [43]: 1.82 µM; TGI [43]: 3.25 µM; GI50 [44]: 1.72 µM; TGI [44]: 3.28 µM; GI50 [45]: 1.85 µM; TGI [45]: 3.49 µM; GI50 [46]: 1.82 µM; TGI [46]: 3.34 µM; GI50 [47]: 2.13 µM; TGI [47]: 6.77 µM; GI50 [48]: 1.8 µM; TGI [48]: 3.36 µM; GI50 [49]: 1.79 µM; TGI [49]: 3.85 µM; GI50 [50]: 1.82 µM; TGI [50]: 3.27 µM; GI50 [51]: 1.47 µM; TGI [51]: 2.88 µM; GI50 [52]: 1.79 µM; TGI [52]: 3.5 µM; GI50 [53]: > 100 µM; TGI [53]: > 100 µM; GI50 [54]: 1.6 µM; TGI [54]: 3 µM
